Results published in US20220220103A1, “CYCLIN-DEPENDENT KINASE INHIBITORS” (SPV THERAPEUTICS INC., priority 2018, published 2022).
Several values for one entry are separate records, joined by “and”; a condition that tells them apart may be missing. Identical values can stand only once. Like-named read-outs stand apart in the source and are kept apart here.

How the values were obtained:
Format in all cases: biochemical
CDK4-CYCLIND1 = CDK4-CYCLIND1 (Homo sapiens, UniProt P11802); test: Microfluidic LabChip inhibition assay, CDK4-CYCLIND1; settings: ATP 200 μM
CDK4-CYCLIND1, sequence (P11802 whole entry): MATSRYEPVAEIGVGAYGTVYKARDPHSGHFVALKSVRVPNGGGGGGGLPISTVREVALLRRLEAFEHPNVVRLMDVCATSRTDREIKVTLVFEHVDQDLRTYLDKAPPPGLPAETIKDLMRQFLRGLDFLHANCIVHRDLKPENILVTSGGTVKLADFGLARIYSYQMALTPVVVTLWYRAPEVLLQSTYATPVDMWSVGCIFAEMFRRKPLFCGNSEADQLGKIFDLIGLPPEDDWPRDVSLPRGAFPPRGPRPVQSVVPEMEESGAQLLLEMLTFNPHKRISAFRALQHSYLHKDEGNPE
CDK4-CYCLIND1, sequence (P24385 whole entry partner): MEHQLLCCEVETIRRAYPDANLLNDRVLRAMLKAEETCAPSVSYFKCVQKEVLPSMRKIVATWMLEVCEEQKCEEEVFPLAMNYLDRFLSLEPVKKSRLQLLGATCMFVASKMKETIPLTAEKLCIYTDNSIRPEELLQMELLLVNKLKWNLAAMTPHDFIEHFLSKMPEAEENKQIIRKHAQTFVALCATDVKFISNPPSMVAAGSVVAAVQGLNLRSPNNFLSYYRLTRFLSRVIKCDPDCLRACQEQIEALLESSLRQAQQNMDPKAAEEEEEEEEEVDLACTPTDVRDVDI
Method: (§1) The reaction was terminated by the addition of EDTA. The plates were analyzed using a Caliper LabChip 3000.
(§2) Additional inhibition assays were performed as described above.

CDK2-CYCLINA = CDK2-CYCLINA (Homo sapiens, UniProt P24941); test: Microfluidic LabChip inhibition assay, CDK2-CYCLINA; settings: ATP 50 μM
Method: as §1, §2

CDK9-CYCLINT1 = CDK9-CYCLINT1 (Homo sapiens, UniProt P50750); test: Microfluidic LabChip inhibition assay, CDK9-CYCLINT1; settings: ATP 10 μM
CDK9-CYCLINT1, sequence (P50750 whole entry): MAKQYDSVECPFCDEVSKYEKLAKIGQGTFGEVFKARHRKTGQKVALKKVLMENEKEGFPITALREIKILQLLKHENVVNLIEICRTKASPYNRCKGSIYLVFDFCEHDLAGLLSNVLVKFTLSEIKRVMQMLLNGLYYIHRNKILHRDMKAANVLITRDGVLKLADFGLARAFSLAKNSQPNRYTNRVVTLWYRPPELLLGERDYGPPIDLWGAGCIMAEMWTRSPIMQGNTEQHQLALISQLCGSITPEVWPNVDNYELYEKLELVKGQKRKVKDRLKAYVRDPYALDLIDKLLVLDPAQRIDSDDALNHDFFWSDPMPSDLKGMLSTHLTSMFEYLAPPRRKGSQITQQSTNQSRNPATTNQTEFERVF
CDK9-CYCLINT1, sequence (O60563 whole entry partner): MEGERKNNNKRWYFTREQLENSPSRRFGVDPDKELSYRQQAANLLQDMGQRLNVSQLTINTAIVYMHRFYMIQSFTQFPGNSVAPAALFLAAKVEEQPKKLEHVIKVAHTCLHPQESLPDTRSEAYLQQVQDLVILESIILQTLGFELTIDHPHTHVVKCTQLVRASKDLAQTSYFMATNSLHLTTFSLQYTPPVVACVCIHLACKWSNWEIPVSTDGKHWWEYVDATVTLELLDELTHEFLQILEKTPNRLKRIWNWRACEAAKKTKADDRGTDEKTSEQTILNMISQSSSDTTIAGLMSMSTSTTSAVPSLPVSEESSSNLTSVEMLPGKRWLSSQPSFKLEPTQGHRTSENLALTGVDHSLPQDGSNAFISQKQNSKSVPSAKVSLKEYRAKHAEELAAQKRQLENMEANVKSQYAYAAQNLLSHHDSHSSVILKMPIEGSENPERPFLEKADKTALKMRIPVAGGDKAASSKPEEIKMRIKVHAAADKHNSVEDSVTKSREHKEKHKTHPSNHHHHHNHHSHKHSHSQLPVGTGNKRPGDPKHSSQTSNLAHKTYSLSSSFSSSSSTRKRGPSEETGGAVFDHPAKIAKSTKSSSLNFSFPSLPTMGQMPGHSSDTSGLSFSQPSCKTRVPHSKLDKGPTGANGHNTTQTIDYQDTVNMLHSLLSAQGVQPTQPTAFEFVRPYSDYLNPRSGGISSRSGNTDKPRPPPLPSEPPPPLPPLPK
Method: as §1, §2

CDK7 CyclinH = CDK7 CyclinH (Homo sapiens, UniProt P50613); test: Inhibition assay, CDK7 CyclinH
CDK7 CyclinH, sequence (P50613 whole entry): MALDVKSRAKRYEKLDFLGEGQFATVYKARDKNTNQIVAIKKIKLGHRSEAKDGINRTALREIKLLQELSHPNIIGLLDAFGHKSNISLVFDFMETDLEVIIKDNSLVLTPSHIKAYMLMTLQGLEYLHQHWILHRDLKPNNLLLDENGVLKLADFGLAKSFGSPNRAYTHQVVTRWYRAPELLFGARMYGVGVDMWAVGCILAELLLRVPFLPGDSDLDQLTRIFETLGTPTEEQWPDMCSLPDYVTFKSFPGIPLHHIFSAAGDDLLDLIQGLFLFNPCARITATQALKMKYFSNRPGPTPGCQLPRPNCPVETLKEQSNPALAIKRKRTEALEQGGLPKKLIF
CDK7 CyclinH, sequence (P51946 whole entry partner): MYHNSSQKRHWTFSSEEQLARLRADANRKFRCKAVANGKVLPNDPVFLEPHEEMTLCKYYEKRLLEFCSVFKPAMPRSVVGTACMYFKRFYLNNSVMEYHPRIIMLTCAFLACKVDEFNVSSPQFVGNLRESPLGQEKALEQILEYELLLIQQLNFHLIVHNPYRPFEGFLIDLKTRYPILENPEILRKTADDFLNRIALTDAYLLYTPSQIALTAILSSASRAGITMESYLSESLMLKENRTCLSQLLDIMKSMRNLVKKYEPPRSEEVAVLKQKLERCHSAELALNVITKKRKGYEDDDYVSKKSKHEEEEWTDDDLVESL
CDK7 CyclinH, sequence (P51948 whole entry partner): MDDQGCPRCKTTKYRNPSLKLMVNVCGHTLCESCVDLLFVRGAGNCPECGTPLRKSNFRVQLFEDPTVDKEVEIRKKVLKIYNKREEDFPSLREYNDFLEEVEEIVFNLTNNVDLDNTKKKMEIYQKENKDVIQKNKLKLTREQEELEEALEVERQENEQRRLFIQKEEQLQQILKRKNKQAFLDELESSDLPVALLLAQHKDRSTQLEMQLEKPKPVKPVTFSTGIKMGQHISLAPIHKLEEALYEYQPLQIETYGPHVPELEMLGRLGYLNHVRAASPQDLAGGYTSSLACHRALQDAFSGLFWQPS
Method: as §1, §2

CDK1/B = CDK1/B (Homo sapiens, UniProt P06493); test: Inhibition assay, CDK1/B
CDK1/B, sequence (P06493 whole entry): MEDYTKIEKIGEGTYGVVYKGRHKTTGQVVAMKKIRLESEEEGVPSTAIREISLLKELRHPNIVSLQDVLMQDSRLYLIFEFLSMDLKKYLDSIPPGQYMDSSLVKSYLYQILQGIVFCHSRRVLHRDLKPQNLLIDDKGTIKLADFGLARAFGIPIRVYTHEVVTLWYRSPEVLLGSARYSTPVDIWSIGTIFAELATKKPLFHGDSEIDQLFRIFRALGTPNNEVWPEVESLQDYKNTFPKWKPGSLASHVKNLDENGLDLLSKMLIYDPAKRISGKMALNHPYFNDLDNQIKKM
CDK1/B, sequence (P14635 whole entry partner): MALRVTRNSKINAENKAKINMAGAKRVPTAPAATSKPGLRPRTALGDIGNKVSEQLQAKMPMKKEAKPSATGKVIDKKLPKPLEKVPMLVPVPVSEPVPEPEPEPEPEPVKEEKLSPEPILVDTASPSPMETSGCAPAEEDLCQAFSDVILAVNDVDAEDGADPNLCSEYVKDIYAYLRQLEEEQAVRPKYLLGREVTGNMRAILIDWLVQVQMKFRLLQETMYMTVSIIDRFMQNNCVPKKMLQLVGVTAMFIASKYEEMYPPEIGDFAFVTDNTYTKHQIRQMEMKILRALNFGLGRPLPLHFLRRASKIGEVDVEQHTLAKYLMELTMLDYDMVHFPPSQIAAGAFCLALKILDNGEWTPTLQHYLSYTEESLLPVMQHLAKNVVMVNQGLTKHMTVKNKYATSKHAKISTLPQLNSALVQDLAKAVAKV
Method: as §1, §2

CDK6-CYCLIND3 = CDK6-CYCLIND3 (Homo sapiens, UniProt Q00534); test: Microfluidic LabChip inhibition assay, CDK6-CYCLIND3; settings: ATP 300 μM
CDK6-CYCLIND3, sequence (Q00534 whole entry): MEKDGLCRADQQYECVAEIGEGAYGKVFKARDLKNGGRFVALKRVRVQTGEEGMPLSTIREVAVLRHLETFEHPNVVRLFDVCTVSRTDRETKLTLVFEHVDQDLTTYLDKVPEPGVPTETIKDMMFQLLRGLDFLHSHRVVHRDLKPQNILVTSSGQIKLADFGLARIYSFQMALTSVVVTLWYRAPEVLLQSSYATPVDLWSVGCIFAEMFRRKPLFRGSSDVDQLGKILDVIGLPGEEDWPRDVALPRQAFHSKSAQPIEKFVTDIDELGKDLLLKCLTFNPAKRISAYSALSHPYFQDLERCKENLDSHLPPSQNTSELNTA
CDK6-CYCLIND3, sequence (P30281 whole entry partner): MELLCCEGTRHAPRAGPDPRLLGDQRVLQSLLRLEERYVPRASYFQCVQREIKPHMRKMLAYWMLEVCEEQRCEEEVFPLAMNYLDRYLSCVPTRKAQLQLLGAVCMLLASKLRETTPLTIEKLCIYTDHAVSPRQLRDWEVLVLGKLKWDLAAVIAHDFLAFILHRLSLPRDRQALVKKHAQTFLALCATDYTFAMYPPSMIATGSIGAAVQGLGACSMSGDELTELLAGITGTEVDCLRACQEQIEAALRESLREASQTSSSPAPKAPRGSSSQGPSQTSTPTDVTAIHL
Method: as §1, §2

[1] = Table 3a, second values in parentheses on the line below, not explained, read-out: CDK4 CyclinD1 IC50
[2] = Table 3b, second values in parentheses on the line below, not explained, read-out: CDK4 CyclinD1 IC50
[3] = Table 3a, read-out: CDK1/B IC50
[4] = Table 3a, read-out: CDK6 CyclinD3 IC50
[5] = Table 2, 25° C., read-out: CDK4 IC50
[6] = Table 2, 25° C., read-out: CDK6 IC50

SMILES	IC50 (CDK4-CYCLIND1; [1])	IC50 (CDK4-CYCLIND1; [2])	IC50 (CDK2-CYCLINA; Table 3a) [nM]	IC50 (CDK2-CYCLINA; Table 3b) [nM]	IC50 (CDK9-CYCLINT1; Table 3a) [nM]	IC50 (CDK9-CYCLINT1; Table 3b) [nM]	IC50 (CDK7 CyclinH; Table 3a) [nM]	IC50 (CDK7 CyclinH; Table 3b) [nM]	IC50 (CDK1/B; [3]) [nM]	IC50 (CDK6-CYCLIND3; [4]) [nM]	IC50 (CDK1/B) [nM]	IC50 (CDK1/B; Table 3b, read-out: CDK1/B IC50) [nM]	IC50 (CDK4-CYCLIND1; [5]) [nM]	IC50 (CDK6-CYCLIND3; [6]) [nM]
CC(=O)c1c(C)c2cnc(Nc3ccc(N4CCN(C)CC4)cc3)nc2n(C23CC(C2)C3)c1=O [Compound B96, 6-acetyl-8-(bicyclo[1.1.1]pentan-1-yl)-5-methyl-2-((4-(4-methylpiperazin-1-yl)phenyl)amino)pyrido[2,3-d]pyrimidin-7(8H)-one]	7.54 nM	7.54 nM	2790	2790	97.6	97.6	2840	2840	4040					
CC(=O)c1c(C)c2cnc(Nc3ccc(N4CC(C)NC(C)C4)cc3)nc2n(C2CCCC2)c1=O (stereo not drawn) [Compound B150, 6-acetyl-8-cyclopentyl-2-((4-(3,5-dimethylpiperazin-1-yl)phenyl)amino)-5-methylpyrido[2,3-d]pyrimidin-7(8H)-one]	< 3.2 nM	< 3.2 nM	196	196			655	655	501					
N#Cc1cc2cnc(Nc3ccc(N4CCN(CCO)CC4)c(F)c3)nc2n(C2CCCC2)c1=O [Compound B106, 8-cyclopentyl-2-((3-fluoro-4-(4-(2-hydroxyethyl)piperazin-1-yl)phenyl)amino)-7-oxo-7,8-dihydropyrido[2,3-d]pyrimidine-6-carbonitrile]	< 3.2 nM	< 3.2 nM	308	308	27.5	27.5	327	327	509					
CC(=O)c1c(C)c2cnc(Nc3ccc(OCCN(C)C)cc3)nc2n(C2CCCC2)c1=O [Compound B60, 6-acetyl-8-cyclopentyl-2-((4-(2-(dimethylamino)ethoxy)phenyl)amino)-5-methylpyrido[2,3-d]pyrimidin-7(8H)-one]	3 nM and 1.6 nM	3 nM and 1.6 nM	77.5	77.5	31.8	31.8	1100	1100		10.1				
CS(=O)(=O)N1CCC(Nc2ncc3cc(C#N)c(=O)n(C4CCCC4)c3n2)CC1 [Compound B152, 8-cyclopentyl-2-((1-(methylsulfonyl)piperidin-4-yl)amino)-7-oxo-7,8-dihydropyrido[2,3-d]pyrimidine-6-carbonitrile]	3.29 nM	3.29 nM	15.3	15.3	105	105	745	745			47.9			
COc1cc(Nc2ncc3c(C)c(C(C)=O)c(=O)n(C4CCCC4)c3n2)ccc1OCCN(C)C [Compound B62, 6-acetyl-8-cyclopentyl-2-((4-(2-(dimethylamino)ethoxy)-3-methoxyphenyl)amino)-5-methylpyrido[2,3-d]pyrimidin-7(8H)-one]	26.3 nM and 14 nM	26.3 nM and 14 nM	280	280	336	336	1300	1300		37.5				
Cc1c(C(=O)N(C)C)c(=O)n(C23CC(C2)C3)c2nc(NC3CCN(S(C)(=O)=O)CC3)ncc12 [Compound B156, 8-(bicyclo[1.1.1]pentan-1-yl)-N,N,5-trimethyl-2-((1-(methylsulfonyl)piperidin-4-yl)amino)-7-oxo-7,8-dihydropyrido[2,3-d]pyrimidine-6-carboxamide]	101 nM	101 nM	1020	1020	> 10000	> 10000	> 10000	> 10000	2820					
CC(=O)c1c(C)c2cnc(Nc3ccc(N(C)CCN(C)C)cc3)nc2n(C23CC(C2)C3)c1=O [Compound B154, 6-acetyl-8-(bicyclo[1.1.1]pentan-1-yl)-2-((4-((2-(dimethylamino)ethyl)(methyl)amino)phenyl)amino)-5-methylpyrido[2,3-d]pyrimidin-7(8H)-one]			1520	1520			785	785	1720					
CC(=O)c1c(C)c2cnc(Nc3ccc(OCCN(C)C)cc3)nc2n(C2CCCC2)c1=O [Compound B59, 6-acetyl-8-cyclopentyl-2-((4-(2-(dimethylamino)ethoxy)phenyl)amino)-5-methylpyrido[2,3-d]pyrimidin-7(8H)-one]	< 3.2 nM	< 3.2 nM	211	211	< 3.2	< 3.2	640	640	527					
Cc1c(C(=O)N(C)C)c(=O)n(C23CC(C2)C3)c2nc(NC3CC4CCC3C4)ncc12 (stereo not drawn) [Compound B157, 8-(bicyclo[1.1.1]pentan-1-yl)-2-(bicyclo[2.2.1]heptan-2-ylamino)-N,N,5-trimethyl-7-oxo-7,8-dihydropyrido[2,3-d]pyrimidine-6-carboxamide]	1250 nM	1250 nM	5250	5250	2450	2450	> 10000	> 10000	> 10000			> 10000		
CC(=O)c1c(C)c2cnc(Nc3ccc(N(C)CCN(C)C)cc3)nc2n(C2CCCC2)c1=O [Compound B155, 6-acetyl-8-cyclopentyl-2-((4-((2-(dimethylamino)ethyl)(methyl)amino)phenyl)amino)-5-methylpyrido[2,3-d]pyrimidin-7(8H)-one]	< 3.2 nM	< 3.2 nM	81.6	81.6			468	468	172					
CC(C)N1CCN(c2cnc(Nc3ncc4cc(C#N)c(=O)n(C5CCCC5)c4n3)cc2C(F)(F)F)CC1 [Compound B29, 8-cyclopentyl-2-((5-(4-isopropylpiperazin-1-yl)-4-(trifluoromethyl)pyridin-2-yl)amino)-7-oxo-7,8-dihydropyrido[2,3-d]pyrimidine-6-carbonitrile]													> 30000	> 30000
N#Cc1cc2cnc(Nc3ccc(N4CCC(N5CCOCC5)CC4)c(F)c3)nc2n(C2CCCC2)c1=O [Compound B41, 8-cyclopentyl-2-((3-fluoro-4-(4-morpholinopiperidin-1-yl)phenyl)amino)-7-oxo-7,8-dihydropyrido[2,3-d]pyrimidine-6-carbonitrile]													7.88	27.9
CN(C)[C@H]1CCN(c2ccc(Nc3ncc4cc(C#N)c(=O)n(C5CCCC5)c4n3)cn2)C1 [Compound B44, (S)-8-cyclopentyl-2-((6-(3-(dimethylamino)pyrrolidin-1-yl)pyridin-3-yl)amino)-7-oxo-7,8-dihydropyrido[2,3-d]pyrimidine-6-carbonitrile]													10.6	30.9
N#Cc1cc2cnc(Nc3ccc(N4CC5(CNC5)C4)c(F)c3)nc2n(C2CCCC2)c1=O [Compound B34, 8-cyclopentyl-2-((3-fluoro-4-(2,6-diazaspiro[3.3]heptan-2-yl)phenyl)amino)-7-oxo-7,8-dihydropyrido[2,3-d]pyrimidine-6-carbonitrile]													1.21	3.89
CC(C)N1CCN(c2ccc(Nc3ncc4cc(C#N)c(=O)n(C5CCCC5)c4n3)cc2)CC1 [Compound B16, 8-cyclopentyl-2-((4-(4-isopropylpiperazin-1-yl)phenyl)amino)-7-oxo-7,8-dihydropyrido[2,3-d]pyrimidine-6-carbonitrile]													1.8	6.32
N#Cc1cc2cnc(Nc3ccc(N4CCOCC4)c(F)c3)nc2n(C2CCCC2)c1=O [Compound B24, 8-cyclopentyl-2-((3-fluoro-4-morpholinophenyl)amino)-7-oxo-7,8-dihydropyrido[2,3-d]pyrimidine-6-carbonitrile]													11.1	35.8
CCN1CCN(Cc2ccc(Nc3ncc4cc(C#N)c(=O)n(C5CCCC5)c4n3)nc2)CC1 [Compound B37, 8-cyclopentyl-2-((5-((4-ethylpiperazin-1-yl)methyl)pyridin-2-yl)amino)-7-oxo-7,8-dihydropyrido[2,3-d]pyrimidine-6-carbonitrile]													46.3	93.6
CC(=O)c1c(C)c2cnc(Nc3ccc(OCCN4CCCCC4)cn3)nc2n(C2CCCC2)c1=O [Compound B67, 6-acetyl-8-cyclopentyl-5-methyl-2-((5-(2-(piperidin-1-yl)ethoxy)pyridin-2-yl)amino)pyrido[2,3-d]pyrimidin-7(8H)-one]	48.8 nM	48.8 nM								298				
CC(=O)c1c(C)c2cnc(Nc3ccc(OCCN(C)C)c(C)c3)nc2n(C2CCCC2)c1=O [Compound B61, 6-acetyl-8-cyclopentyl-2-((4-(2-(dimethylamino)ethoxy)-3-methylphenyl)amino)-5-methylpyrido[2,3-d]pyrimidin-7(8H)-one]	1600 nM	1600 nM	7730	7730	790	790	> 100000	> 100000		3950				
N#Cc1cc2cnc(Nc3ccc(OCCN4CCCC4)c(F)c3)nc2n(C2CCCC2)c1=O [Compound B30]													7.62	24.2
